Patent US8361993B2, “Hydroxy-bisphosphonic acid derivatives as vector targeting bone tissue” (Universite de Nantes, priority 2008, dated 2013)
Where a name gives a salt, the structure may show the parent alone. Read-outs that look alike come from different tables or passages of the source.

How the values were obtained:
[1] = tested on: MG63 osteosarcoma cell line; test: viability/cytotoxicity test on osteosarcoma line MG63; assay type: cell-based; settings: MG-63; human osteosarcoma cell line
Protocol: (§1) The biological activities (viability/cytotoxicity test) of the molecules (III) and (IV) were tested in vitro on cultures of human, murine and rat osteosarcoma lines in comparison with normal cells (healthy osteoblasts from mouse calvaria).

[2] = tested on: POS1 osteosarcoma cell line; test: viability/cytotoxicity test on osteosarcoma line POS1; assay type: cell-based; settings: mouse osteosarcoma cell line
Protocol: as §1

[3] = tested on: OSRGA osteosarcoma cell line; test: viability/cytotoxicity test on osteosarcoma line OSRGA; assay type: cell-based; settings: rat osteosarcoma cell line
Protocol: as §1

[4] = tested on: mice (Swiss strain); test: in vivo bone tropism test in young mice, 4 weeks of treatment; settings: 0.35 μmol/kg sub-cutaneously twice a week; for specific bone volume BV/TV, left femur / specific bone volume BV/TV, average of left and right femur / specific bone volume BV/TV, right femur: 4 weeks; for specific bone volume BV/TV, left femur: control 56.58%; for specific bone volume BV/TV, average of left and right femur: control 62.89%; for specific bone volume BV/TV, right femur: control 69.20%
[5] = tested on: mice; test: administration of the fluorescent molecule in mice; settings: mouse, in vivo
[6] = tested on: different cell lines; test: in vitro cytotoxicity of the fluorescent molecule; assay type: cell-based
[7] = tested on: Mouse osteosarcoma POS1 cells; test: in vivo osteolytic primitive bone tumor model, POS1 tumor fragments transplanted into para-osteal site; settings: treated versus untreated (control) mice; FIG. 3
Protocol: Mouse osteosarcoma POS1 cells were injected in the pad of a 5-week old male mouse of the C3H/HeN strain. Fragments of the tumor which develops on this site are then transplanted into a para-osteal site in order to induce development of an osteolytic primitive bone tumor. The molecule (IV) was then injected as a cure of […] injections (IP) of 11.5 or 115 μmol/kg at 24 hr intervals from the 7th day (D7) after tumoral induction.

[8] = tested on: POS-1 mouse osteosarcoma; settings: in vivo
[9] = tested on: murine fibroblast L929; test: cells; assay type: cell-based; settings: Mus musculus, L929, 72 h
[10] = tested on: POS-1 mouse osteosarcoma; test: cells; assay type: cell-based; settings: 72 h

CN(CCCOc1cccc(COP(N)(=O)N(CCCl)CCCl)c1)CCC(O)(P(=O)(O)O)P(=O)(O)O (centres unmarked) [Molecule (III), 3-((3-(3-((amino(bis(2-chloroethyl)amino)phosphoryloxy)methyl)phenoxy)propyl)(methyl)amino)-1-hydroxypropane-1,1-diyl-diphosphonic acid] was tested, and the IC50 [1] was > 200 µM, the IC50 [2] was > 200 µM and the IC50 [3] was > 200 µM.
For O=P(O)(O)C(O)(Cn1ccnc1)P(=O)(O)O [Disodium salt of zoledronic acid, zoledronic acid, reference compound], the “specific bone volume BV/TV, left femur” value [4] was 72.72%, the “specific bone volume BV/TV, average of left and right femur” value [4] was 74.02% and the “specific bone volume BV/TV, right femur” value [4] was 75.33%. For the same compound, the “weight follow-up and general condition of the mice” value ([4]; after 4 weeks) was “no incidence on the weight follow-up, nor on the general condition”.
CN(CCCOc1cccc(CN(C)S(=O)(=O)c2cccc3c(N(C)C)cccc23)c1)CCC(O)(P(=O)(O)O)P(=O)(O)O [Molecule (II), 3-((3-(3-((5-dimethylamino)-N-methylnaphthalene-1-sulfonamido)methyl)phenoxy)propyl(methyl)amino)-1-hydropropane-1,1-diyldiphosphonic acid] was tested, and the “cytotoxic activity after administration in mice” value [5] was “did not either reveal any cytotoxic activity” and the “cytotoxic activity in vitro” value [6] was “did not have any cytotoxic activity”.
In the case of CN(CCCOc1cccc(COCCOP(N)(=O)N(CCCl)CCCl)c1)CCC(O)(P(=O)(O)O)P(=O)(O)O (centres unmarked) [Molecule (IV), {3-[(3-{3-[6-amino-9-chloro-7-(2-chloroethyl)-6-oxido-2,5-dioxa-7-aza-6-phosphanon-1-yl]phenoxy}propyl)(methyl)amino]-1-hydroxypropane-1,1-diyl}biphosphonic acid], the IC50 [1] is reported as > 500 µM, the IC50 [2] is reported as > 500 µM and the IC50 [3] is reported as > 500 µM. For the same compound, the “bone mineral density in the epiphyseal area (radiographs)” value [7] was “increase in the bone mineral density”.
With NP(=O)(OCc1cccc(OCCCBr)c1)N(CCCl)CCCl (centres unmarked) [Molecule 2] the survival rate [8] was “significant increase”, the IC50 ([9]; read-out: IC50 L929 (DMSO)) was > 500 µM and the IC50 ([9]; read-out: IC50 L929 (ethanol)) was 250 µM. For the same compound, the IC50 ([10]; read-out: IC50 POS-1 (DMSO)) was 200 µM and the IC50 ([10]; read-out: IC50 POS-1 (ethanol)) was 300 µM.
CN(CCCOc1cccc(COP(N)(=O)N(CCCl)CCCl)c1)CCC(=O)OC(C)(C)C (centres unmarked) [Molecule 3] was tested, and the IC50 ([9]; read-out: IC50 L929 (DMSO)) was 500 µM, the IC50 ([9]; read-out: IC50 L929 (ethanol)) was > 500 µM and the IC50 ([10]; read-out: IC50 POS-1 (DMSO)) was 280 µM. It also gave an IC50 ([10]; read-out: IC50 POS-1 (ethanol)) of 500 µM.
In the case of CN(CCCOc1ccccc1)CCC(O)(P(=O)(O)O)P(=O)(O)O [Molecule 4], the “specific bone volume BV/TV, left femur” value [4] is reported as 73.69%, the “specific bone volume BV/TV, average of left and right femur” value [4] is reported as 73.88% and the “specific bone volume BV/TV, right femur” value [4] is reported as 74.08%. For the same compound, the “mineral density on radiographs” value ([4]; after 4 weeks, versus control mice, FIG. 2) was “increase in the mineral density”.
